Source: PMC11990322, “Cholinium-Based Ionic Liquids Modulate Protein Stability: A Comparative Study of Enzymes and Albumins” (Molecules, 2025)

Experiments:
α-chymotrypsin = molecular target: T1, α-chymotrypsin (Bos taurus, UniProt P00766); assay: Trp fluorescence quenching, double-log plot; type: binding; settings: 10 mM PBS, 1 mg/mL enzyme, excitation 295 nm
T1 construct: docking model 1YPH agrees
Source text: Trp fluorescence quenching, double-log plot on α-chymotrypsin

lysozyme = molecular target: T2, lysozyme (Gallus gallus, UniProt P00698); assay: Trp fluorescence quenching, double-log plot; type: binding; settings: 10 mM PBS, 1 mg/mL enzyme, excitation 295 nm
T2 construct: gene LYZ; docking model 6LYZ and six Trp agree
T2 sequence (P00698 19-147): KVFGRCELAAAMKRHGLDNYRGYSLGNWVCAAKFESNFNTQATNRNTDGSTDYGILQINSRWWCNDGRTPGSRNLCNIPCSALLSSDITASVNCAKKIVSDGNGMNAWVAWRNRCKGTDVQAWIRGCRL
Source text: Trp fluorescence quenching, double-log plot on lysozyme

Compound | Kb/M^-1 a (α-chymotrypsin; n = 1.19, ion-pair salt titrated as ligand) | Kb/M^-1 a (lysozyme; n = 1.15, ion-pair salt titrated as ligand) | Kb/M^-1 a (α-chymotrypsin; n = 1.40, ion-pair salt titrated as ligand, ligand perturbs the tertiary structure) | Kb/M^-1 a (lysozyme; n = 0.99, ion-pair salt titrated as ligand, ligand unfolds the tertiary structure)
C[N+](C)(C)CCO.O=C([O-])CCC(=O)O [[Ch][Suc]] | 30.95 ± 5.69 M⁻¹ | 31.64 ± 6.01 M⁻¹ |  | 
CC(C)[C@H](N)C(=O)O [[Ch][Val]] |  |  | 280.6 ± 30.05 M⁻¹ | 73.84 ± 10.34 M⁻¹
